Tests used:
[1] = system: mice; test: Behavior of the mice after injection; assay type: in vivo, mice (Kunming); settings: intravenous injection, GABA 50 mg/kg or GABA–CPP 10 mg/kg, symptom with GABA–CPP appeared a bit worse
[2] = GABA–CTP BBB penetration experiment: GABA in plasma of mice by LC–MS; assay type: in vivo, mice (Kunming); settings: male mice, one bolus intravenous injection via tail vein (GABA 50 mg/kg, GABA–CPP 10 mg/kg)

Compound: NCCCC(=O)O [GABA, γ-aminobutyric acid]
- behavior of the mice after injection [1]: quiet and sleepy behavior
- GABA concentration in plasma within 2 min after injection [2]: 7985 ng/mL
- GABA concentration in plasma within 1 h after injection [2]: 141 ng/mL
